Measurements: patent US9567291B2, “N-(4-(bis(4-(dimethylamino)phenyl)methylene)-8-(dimethylamino)” (EMORY UNIVERSITY, priority 2013, dated 2017)
“Also recorded” adds a separate entry of the source.

Key:
Type in all cases: cell-based
[1] = test system: LM36R cells; test: cell proliferation assay, LM36R cells; conditions: 24 h treatment
Description: (§1) FIG. 1 illustrates the cell proliferation assay procedure. 5×10^4 cells were seeded in 24-well plates and incubated for 24 h. Stock solutions of PSB, PSMB, and IB were diluted into 5 mL of appropriate media samples for each treatment concentration (1 μM, 2.5 μM, etc). One mL was then added to each of the four wells per treatment concentration. Cells were incubated for 24 h in standard conditions. Cells were then washed with Phosphate Buffered Saline (Sigma Aldrich) and harvested by trypsinization (0.5 mL/well). Cells were incubated for 10 minutes in standard conditions and diluted into a 10 mL isotone solution. The isotone solution was subsequently placed into a cell counter, providing a count that represented 1/20 the number of cells per well.
(§2) A375 cells were grown in high-glucose Dulbecco's modified Eagle's medium (DMEM) (Mediatech) supplemented with fetal bovine serum (FBS) and penicillin/streptomycin (Sigma-Aldrich) in standard conditions (37° C., 5% CO2, humidified atmosphere). LM36 and LM36R cells were grown in cultured in RPMI medium supplemented with 10% FBS, L-glutamine and antibiotics in standard conditions (37° C., 5% CO2, humidified atmosphere).

[2] = test system: A375 cells; test: cell proliferation assay, A375 cells; conditions: 24 h treatment; for inhibition of cell proliferation: cell count, FIG. 4A/5A
Description: as §1, §2

[3] = test system: LM36 cells; test: cell proliferation assay, LM36 cells; conditions: 24 h treatment
Description: as §1, §2

Substance	antiproliferative potency compared to IB [1]	antiproliferative potency compared to IB [2]	inhibition of cell proliferation [2]	antiproliferative potency compared to IB [3]	inhibition of cell proliferation ([1]; cell count, FIG. 4B/5B)	inhibition of cell proliferation ([3]; cell count, FIG. 4C/5C)
N-(4-(bis(4-(diethylamino)phenyl)methylene)-8-(dimethylamino) naphthalen-1(4H)-ylidene)-N-methylmethanaminium [PSB]	Such a trend is not observed	only exhibits greater antiproliferative effects in A375 cells; also recorded: more potent than IB	inhibits A375 proliferation in a concentration-dependent fashion	Such a trend is not observed	–	–
N-(4-(bis(4-(dimethylamino)phenyl)methylene)-8-(dimethylamino)naphthalen-1(4H)-ylidene)-N-methylmethanaminium [PSMB]	greater antiproliferative effects than IB; also recorded: more potent inhibition than IB	greater antiproliferative effects than IB; also recorded: more potent inhibition than IB	anti-proliferative effects that operate in a concentration-dependent fashion	greater antiproliferative effects than IB; also recorded: more potent inhibition than IB	anti-proliferative effects that operate in a concentration-dependent fashion	anti-proliferative effects that operate in a concentration-dependent fashion
